Values quoted from earlier work as cited in paper PMC4990482 (Nature chemical biology, 2016).

Test system: EZH2

## CC[C@H](C)n1cc(C)c2c(C(=O)NCc3c(C)cc(C)[nH]c3=O)cc(-c3ccc(N4CCNCC4)nc3)cc21 [GSK126]
  selectivity for EZH2 versus EZH1: > 150 fold
